Assay results published in patent US11117919B2, “Icariside compound, preparation method thereof, and application thereof” (FOSHAN GOLDEN HEALTH TECHNOLOGY CO., LTD., priority 2015, dated 2021).

Assays:
[1] = test system: PFMCs from TB infected patients; assay: IFN-γ production by pleural fluid cells (PFMCs) of tuberculosis patients; type: cell-based, human; settings: 0.1, 0.5, 1 μg/ml, 48 h
Experimental: (2) Isolation of Pleural fluid cells (PFMCs, namely cells stimulated by tuberculosis bacteria infection) from patients suffering from tuberculosis: blood samples were taken from volunteers (vein blood of TB patients) and then anticoagulated with heparin and diluted with an equal volume of Hank's solution. The solution was centrifuged once (1800 rpm, 22° C. 8 minutes). After removal of the supernatant, an appropriate amount of ELS (erythrocyte lysate) was added for re-suspension. After 3-5 minutes, an appropriate amount of Hank's solution was added for stop and then the mixture was centrifuged twice (1800 rpm, 22° C. 8 minutes), followed by addition of RPMI1640 complete medium to adjust the PBMC cell concentration to 2×10^9 cells/L.
(3) PBMCs and PFMCs cell culture (MLC) with stimulation by a pharmaceutical: Icariside I was used at concentrations of 0.1 μg/ml, 0.5 μg/ml, and 1 μg/ml respectively to stimulate PBMCs and PFMCs under the incubation condition at 37° C. with 5% CO2 for 48 hours.
(4) ELISA assay for analysis of IFN-γ: according to the method stated in Example 5 (4), the levels of γ-interferon produced by PBMCs and PFMCs after culture with pharmaceutical stimulations were measured. […]

[2] = test system: human peripheral blood mixed lymphocytes; assay: IFN-γ production in mixed lymphocyte culture (MLC) reaction; type: cell-based; settings: 120 h
Experimental: Effect of icariside I on promotion of γ-interferon (interferon-gamma, IFN-γ) production by human peripheral blood mixed lymphocytes during culture (an experimental model mimicking enhancing immunity in human body).
(1) Preparation of human peripheral blood mononuclear cells (PBMCs): following the method in Example 5 (2), peripheral blood PBMCs from two normal human were prepared.
Cell concentrations of freshly isolated peripheral blood mononuclear cells (PBMCs) were adjusted to […] with RPMI1640 complete medium. Then, lymphocytes from two healthy human with equal volumes were mixed to maintain a total cell concentration of […]. Different concentrations (in a gradient) of or no icariside I were added thereto (with final concentration of 100 ng/ml, 1000 ng/ml) followed by fully mixing. Then the cells after stimulation were seeded and cultured in a 96-well round-bottom culture plate. The cell concentration per well was maintained at 2×10^5/ml (200 μl/well) and was incubated at 37° C. with 5% CO2 for 120 h in an incubator. The levels of cytokine IFN-γ were detected.
According to the method stated in Example 5 (4), the γ-interferon generated from human peripheral blood mixed lymphocyte culture (MLC) was detected.
Equal cell concentrations of lymphocytes from healthy human were mixed cultured for five days (120 h). The pharmaceutical icariside I was added (in a gradient of different pharmaceutical concentrations) or not added. […] Among them, the human lymphocyte A control is a group of samples containing only one kind of human lymphocyte, while human lymphocyte B control is a group of samples containing two kinds of human lymphocytes, that is, a control group in which two kinds of human lymphocytes were mixed for culture without adding icariside I. The concentrations of icariside I added were 0.1 and 1 μg/ml respectively. *P<0.05; **P<0.01. […]
Cell concentrations of freshly isolated peripheral blood mononuclear cells (PBMCs) were adjusted to 5×10^5/ml with RPMI1640 complete medium. […] The level of cytokine IFN-γ produced was then detected.

[3] = test system: human peripheral blood mononuclear cells (PBMCs); assay: Immunological screening model: IFN-γ produced in human PBMCs; type: cell-based
Source text: The present inventors have long been researching the active components in traditional Chinese herbal medicine and their applications in immunotherapy. The present inventors have established an immunological test model based on determination of the level of IFN-γ produced in human peripheral blood mononuclear cells (PBMCs). By this model, compounds having promotion (or inhibition) effects on human peripheral blood mononuclear cells (PBMCs) to produce γ-interferon can be screened out from chemical components from various sources including traditional Chinese herbal medicine, medicinal plants and so on. Since the γ-Interferon is an important protein (cytokine) in human body's immune system to resist attacks from diseases, its production level in body directly relates to the body's immunity. Therefore, the model is an ideal tool to screen and find functional pharmaceuticals for improving human immunity.
In addition, all the results and achievements of the present invention are based on the very effective screening model established by the present inventors. Therefore, a further objective of the present invention is to provide an experimental model for screening substances having impacts (either enhance or inhibit) on immunity. […] Finally, by using ELISA techniques, the levels of IFN-γ produced in the culture were measured at different incubation time. […]

## COc1ccc(-c2oc3c(CC=C(C)C)c(O[C@@H]4O[C@H](CO)[C@@H](O)[C@H](O)[C@H]4O)cc(O)c3c(=O)c2O)cc1 [icariside I]
[1]
  effect on PFMCs in producing IFN-γ: significant and dose dependent effect
[2]; 100 and 1000 ng/ml, dose dependent
  promotion of generation of IFN-γ in the mixed lymphocyte culture: up to 300%
[2]; final concentration 1000 ng/ml
  ability to promote human γ-interferon production in mixed lymphocyte culture: best ability
[3]
  effect in promoting PBMCs to generate IFN-γ: significant effect
